Test results taken from patent US4602006A, “Ynenolactone protease inhibitors” (Syntex (U.S.A.) Inc., priority 1984, dated 1986).

Target: T1, Human Leukocyte Elastase (Homo sapiens, UniProt P08246)
T1 construct: fresh human leukocytes were obtained from a healthy donor; from tissue; host or cells: human leukocytes from a healthy donor (homogenized)
T1 sequence (P08246 30-247 limits assumed): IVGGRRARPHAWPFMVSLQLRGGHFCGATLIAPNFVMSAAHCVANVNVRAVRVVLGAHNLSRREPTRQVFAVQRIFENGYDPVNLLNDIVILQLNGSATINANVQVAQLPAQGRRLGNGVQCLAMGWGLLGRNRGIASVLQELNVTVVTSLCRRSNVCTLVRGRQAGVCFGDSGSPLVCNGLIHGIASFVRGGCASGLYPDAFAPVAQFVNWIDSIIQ
Test: Inactivation of Human Leukocyte Elastase (fluorogenic substrate assay)
Type: biochemical

kinact (25° C., pH 7.8, substrate MeOSuc-Ala-Ala-Pro-Val-methylcoumarinamide, read-out: maximum inactivation rate): 0.09 s⁻¹
KI (inactivation) (half-maximal inactivation rate, 25° C., pH 7.8, read-out: inhibitor concentration required for half-maximal rate): 4.1 µM
SMILES: C#C/C=C1\CC(Cc2ccccc2)C(=O)O1 (stereo not shown) [3-Benzyl-5(E)-(prop-2-ynylidene)tetrahydro-2-furanone]
irreversibility of inactivation (0.24 nanomoles HL elastase + 4 microliters 2 mM inhibitor, 25° C., after 17 minutes chromatographed on Sephadex G-50): irreversibility of this inactivation was shown
mode of enzyme inactivation (inhibitor added after recording the uninhibited rate): inactivated in a time and concentration dependent manner
